In a melting point compilation (Tetko et al.; mined from patent text by program, amines drawn as free bases though some values may be those of a salt):

Structure (SMILES)	melting point [°C]
OC1CSC(Oc2cc(-c3ccnc(F)c3)ccc2Cl)C(O)C1O (configuration not stated)	162
CC1(C)CC(=O)c2c(-c3ccccc3)sc(C#N)c2C1	100 to 103
O=C(O)c1ccc(-c2ncn(-c3ccc(C(F)(F)C(F)(F)C(F)(F)F)cc3)n2)cc1	225
CC(=NOCCO)c1ccc2ccccc2c1	94 to 96
NC1CN(c2c(F)c(F)c3c(=O)c(C(=O)O)cn(C4CC4)c3c2F)CC1CF (configuration not stated)	252 to 253
COc1ccc(-c2[nH]cnc2-c2cc(OC)c(O)c(OC)c2)cc1O	172 to 173
CCOC(=O)c1cn(C2CC2)c2c(Cl)c(F)c(Cl)cc2c1=O	215 to 217
CC(C)Oc1nsc(NC(=O)C(C)C)c1C#N	224
O=C(O)c1cn(C2CN(C(c3ccccc3)c3ccccc3)C2)c2cc(F)c(F)cc2c1=O	245 to 247
Cn1nc2c(oc3ccccc32)c1NCC(F)(F)F	120 to 121
CCCC1=C([N+](=O)[O-])C(c2ccccc2Cl)c2c[nH]nc2N1 (configuration not stated)	228
COC(=O)N1C2CCC1CC(=O)C2	60 to 61
CSC(SC)=C(C(=O)C(C)(C)C)n1cncn1	60
O=C(O)[C@@H]1C[C@H](O)CN1C(=O)c1ccccc1	133 to 136
O=C(NS(=O)(=O)c1c(F)cccc1F)N1CCC=N1	183
COC(=O)c1cc(-c2cccc(C3=NC(C)(C)Cc4cc(OC)c5c(c43)CC(C)(C)O5)c2)ccc1NC(C)=O	116 to 119
CN1CCN(c2ccccc2C=C2CCN(c3ccccc3)C2=O)CC1	104 to 106
CCOC(=O)c1cc2ccnc(N(Cc3ccccc3)Cc3ccccc3)c2[nH]1	120 to 123
O=C(O)[C@@H]1CCc2ccc(O)cc2O1	77 to 79
C/C(=C\c1ccc(C(=O)O)cc1)c1ccc2c(c1)C(C)(C)C=CC2(C)C	234 to 236
CNC(=O)c1cccc2c1C1(COc3cc4c(cc31)OCCO4)C(=O)N2C (configuration not stated)	120 to 122
CC12CCC(C(=O)O)=CC1=CCC1C2CCC2(C)C(C(=O)CCCc3ccccc3)CCC12 (configuration not stated)	208 to 210
O=C1CC[C@@H](COc2cccnc2)N1	121 to 122
CCCCCN1C(=O)CC(c2ccc(C(F)(F)F)cc2)C(C(=O)OCC)C1=O (configuration not stated)	112 to 115
N#CC(S)(CCC(=O)O)C1=NCCc2ccccc21 (configuration not stated)	149 to 150
N#Cc1ccc(-c2ccc(O)cn2)cc1	210

Structure (SMILES)	melting point [°C]
CSc1ccccc1-c1ccc(C(=O)O)cc1	220 to 222
[N-]=[N+]=NOS(=O)(=O)N=[N+]=[N-]	60
CC(C)n1ccc(-c2ccc([C@H](C)N3CC[C@](CC(C)(C)O)(c4ccccc4)OC3=O)cc2)cc1=O	134 to 139
COc1nc(C(=O)O)ccc1CN1CC1C#N (configuration not stated)	96 to 97
COc1cccc(CCC(C(=O)c2ccc(O)cc2)c2ccccc2)c1 (configuration not stated)	125 to 129
O=Cc1cc2ccccc2nc1N1CCN(CC2CCCCC2)CC1	54 to 55
CC(C)(C)OC(=O)N1CCN2C(=O)N(c3cc(Cl)cc(Cl)c3)C(=O)C2(Cc2ccc(Br)cc2)C1 (configuration not stated)	79.5
COC(=O)c1ccc(-c2nc(-c3cccc(Cl)c3)cs2)cc1	150 to 151
N#CC[C@H](NC(=O)c1ccc2ccccc2c1)C(=O)O	95 to 100
O=C(O)c1cc(=O)c2cc(O)c(=O)ccc2[nH]1	258 to 260
Cc1cc(C(=O)CBr)cc(C)c1O	128 to 131
N#CCCc1c(SC(F)(F)F)c(C#N)c(Cl)n1-c1c(Cl)cc(C(F)(F)F)cc1Cl	150
Cn1cc(-c2cccc(F)c2)c(=O)c(-c2cccc(C(F)(F)F)c2)c1	94 to 96
CCOC(=O)c1nc2cc(Br)c(Br)cc2[nH]c1=O	235 to 236
c1ccc(CN2CCC(Oc3cnccn3)(c3ccccc3)CC2)cc1	107 to 108
Oc1ccc(-c2cn(-c3ccc(C(F)(F)F)cc3F)nn2)cc1	215 to 216
COc1ccccc1N1CCN(c2cc3nc(C(=O)O)c(=O)[nH]c3cc2[N+](=O)[O-])CC1	204 to 206
COC(=O)c1cccc(OC(=O)C(=O)Oc2cccc(C(=O)OC)c2)c1	194 to 195
CCN(CCc1ccc(Nc2ncc3c(n2)-c2ccccc2C(c2cccc(Br)c2)C3)cc1)C(C)C (configuration not stated)	67 to 69
O=C1CN2Cc3c(O)cccc3N=C2N1	> 280
CCOC(=O)C(NC(=O)c1ccccc1)C(C)C (configuration not stated)	74
CSC(=NCC(C)C)Nc1cc(Cl)cc(Cl)c1	150
COc1ccc(OC)c2c1C(=O)c1c(O)c3c(c(O)c1C2=O)CC(=O)CC3	173 to 174
Cn1ncc2c1-c1c(Oc3cccnc3)sc(C(=O)O)c1CC2	124 to 125
O=C1c2ccccc2-c2nn(CCO)c3ccc(NCCNCCO)c1c23	209 to 211
CSc1nc(C)cc(O)n1	149

Structure (SMILES)	melting point [°C]
COc1cc(O)c2c(=O)c(OC)c(-c3ccc(OC(=O)C(O)C(O)C(=O)O)c(OC)c3)oc2c1 (configuration not stated)	179 to 180
C=CCOC(=O)N1C[C@@H](S)C[C@H]1CNC(=O)c1ccc(C(=O)NCc2ccc(Cl)c(Cl)c2)cn1	101 to 105
O=C(c1cnc2ccccc2c1)N1CCC(c2ccccc2)=N1	107 to 112
COc1cc2ccccc2cc1N(C)C(=O)N1CCN(c2cc(C)cc(C)c2)CC1	134 to 136
CN1C(=O)c2cscc2N(Cc2ccccc2)c2ccccc21	152 to 153
CC1(NC2=NS(=O)(=O)c3sc(Cl)cc3N2)CCCCC1	218 to 219
COC(=O)c1c(-c2ccc(OC)cc2)ccc2ccccc12	115 to 116
COC(=O)CC1CCNC1 (configuration not stated)	68.5 to 69.5
O=C(O)C1=Cc2cc3occ(-c4ccc(Br)cc4)c3cc2OC1C(F)(F)F (configuration not stated)	> 250
CCOC(=O)C1CCN(c2nc(COc3ccc(COc4nn(-c5ccccc5)cc4C=O)cc3OC)c(C)s2)CC1	126 to 127
COC(=O)c1scc(Br)c1N	58 to 60
CCN(CC)c1nc(Cl)c([N+](=O)[O-])s1	85
COCc1cc2c(Nc3cccc(Cl)c3)ncnc2[nH]1	226 to 230
N#Cc1cc(F)c(NC(=O)C(F)(F)F)c(F)c1	134 to 135
CCOC(=O)CCCCc1cccc(-c2nc(=O)c3ccccc3s2)n1	87 to 88
Cc1[nH]c(=O)n(-c2cc(C(=O)OC(C)C)c(Cl)cc2F)c(=O)c1C	155 to 157
COc1cccc(-c2cnc3c(-c4cc(-c5ccccc5)cs4)cnn3c2O)c1	> 300
COC(=O)C(C)(C)C(Cc1ccc(OC)cc1)N(C)S(=O)(=O)c1ccc(C)cc1 (configuration not stated)	132 to 134
O=P(O)(O)C1(P(=O)(O)O)Cc2ccccc2C1	55 to 57
COc1ccc(-c2cc(COS(C)(=O)=O)c(=O)n(CCCc3ccc(F)cc3)n2)cc1F	112 to 116
COC(=O)c1nn(-c2ccc(CBr)cc2)nc1C	122 to 125
CCOC(=O)c1cn(C23CC(C2)C3)c2cc(Cl)c(F)cc2c1=O	223 to 225
CCOC(=O)N(O)Cc1cccc(Nc2ccccc2C(=O)OC)c1Cl	108 to 110
C[C@H](Cn1ncnn1)n1cnc2cc3c(=O)n([C@H](C)Cn4cnnn4)nnc3cc2c1=O	168 to 170
CCOC(=O)c1cn(-c2ncc(F)c(NC(C)(C)C)n2)c2c(Cl)c(F)c(F)cc2c1=O	201 to 205
CC(=O)c1c[nH]c(Cc2ccc(O)cc2)n1	229 to 231

Structure (SMILES)	melting point [°C]
COc1ccc(C(C#Cc2ccccc2)CN(C)C(=O)C(=O)O)cc1OC1CCCC1 (racemic)	157 to 159
CC(C)Oc1c(C(=O)O)sc(-c2ccccc2)c1Br	159 to 160
Nc1ncc(C#Cc2ccc(Cl)cc2)c(Oc2ccc(O)cc2)n1	250 to 251
CCCCc1nc2c(N)nc3ccccc3c2n1CCNC(=O)CCCCC1SCC2NC(=O)NC21 (configuration not stated)	124 to 126
CC1CCCCC1C(=O)Nc1ccc(-c2ncc(-c3ccc(NC(=O)c4cccnc4)cc3)[nH]2)cc1 (configuration not stated)	245 to 247
O=C(NO)c1cnc(N2CCC(CNS(=O)(=O)c3ccc(C(=O)Nc4ccc(Cl)c(-c5ccccn5)c4)c(Cl)c3)CC2)nc1	172 to 173
O=C1NC(=O)N(Cc2ccc(Cl)cc2)C1O (configuration not stated)	149 to 150
CCNc1nc(=O)n(Cc2ccc(OC)c(OC3CCCC3)c2)c2nc(C(C)C)[nH]c12	110 to 115
C#CCOC(=O)Oc1ccc(S(=O)(=O)c2ccc(OC(=O)OCC#C)cc2)cc1	112 to 114
CCOCc1nc2c(N)nc3cc(-c4ccc(-c5ccc6c(c5)nc(N)c5nc(COCC)n(CC(C)(C)O)c56)cc4)ccc3c2n1CC(C)(C)O	325 to 328
CCCCCCCCCCCC(=O)N[C@H](CC(=O)c1ccc(C)cc1)C(=O)OCC	60 to 60.5
COC(=O)C1=Cc2cc(Br)ccc2N(C)CCC1	88 to 89
CC(CCCS(C)(=O)=O)C(c1cc(F)ccc1F)S(=O)(=O)c1ccc(Cl)cc1 (configuration not stated)	115 to 117
O=C(O)c1c2c(nc3ccc(F)cc13)-c1ccc(-c3ccc(F)cc3F)cc1CCC2	> 300
CC(=O)Nc1nc2cc3[nH]c(-c4ccncc4)nc3cc2[nH]1	> 330
CSc1ccc(-c2coc3ccc(-c4nnc(C)o4)cc23)c(Cl)c1	153 to 154
COC(=O)C(c1ccc(Br)cc1)(c1ccc(Br)cc1)c1ncc[nH]1	135
CC(=O)Nc1ccc(C=CC(=O)N2CCc3c([nH]c4ccccc34)C2c2ccccc2)cc1 (configuration not stated)	177 to 180
O=C(Cc1ccc2c(c1)CCC(NS(=O)(=O)c1cccs1)C2)Nc1ccc(C(=O)O)cc1 (configuration not stated)	250 to 252
Cc1cc(C)cc(-c2nc(CCl)co2)c1	76 to 77
CC(C)(C)OC(=O)NCc1cccc(-c2nc(=O)c3ccccc3s2)n1	160 to 162
Cc1cccc(COc2cccnc2N)c1F	115 to 118
Cc1ccc(C(C)C)n1N	21 to 24
CC12CCC3c4ccc(OCc5ccccc5)cc4CCC3C1CCC2OCc1ccccc1 (configuration not stated)	74 to 78
